Measurements as given in paper PMC12040169 (PLOS Biology, 2025).
Values joined by “and” are separate entries in the source; they are usually repeats but may differ in a detail not shown here. Equal entries are not always repeated.

Experiments:
HeLa = details: bulk resorufin, single well, 28.5 h, 10 µM, Bulk resorufin fluorescence
in vitro = details: human, hela cells, % viability

| Compound | % viability (HeLa) | viability at 28.5 h, 10 µM (in vitro) [%] | viability at 28.5 h, 10 µM (in vitro; bulk resorufin, single well) [%] |
| --- | --- | --- | --- |
| CCCC(=O)NCc1ccc(OC2CCNCC2)cc1 [CBK024489T] | 112% | 95.6 |  |
| CCCC(=O)Nc1cc2ccccc2c(N2CCNCC2)n1 [CBK024608T] | 104% | 102 |  |
| CC(C)(C)c1nc(CN2CCOCC2)ccc1O [CBK026614C] | 111% | 112 |  |
| CC(C(=O)Nc1cncc(OC2CCNCC2)n1)c1ccccc1 (stereo not shown) [CBK026733T] | 110% | 99.2 |  |
| Cc1cc(C(NC(C)(C)C)C(=O)O)cc(C)c1O (stereo not shown) [CBK027143] | 90.9% | 86.6 |  |
| COC(=O)c1ccc(-c2nc3nnc(C)n3[nH]2)cc1 [CBK027508] | 87.7% | 103 |  |
| CSc1ccc(CN2CCN(Cc3ccc(Br)cc3)CC2)cc1 [CBK027856] | 96.4% |  | 79.2 |
| CC(C)[C@@H](CO)Nc1nccnc1-c1cccc(C(=O)O)c1 [CBK036665] | 93% | 85.6 |  |
| Cc1cc(-c2nccnc2NCCCN2CCCC2=O)cc(C)c1O [CBK037632] | 98% | 94.1 |  |
| Cc1nn(C)c(N2CCNCC2)c1NC(=O)C1CCC1 [CBK045923T] | 96.2% | 91.8 |  |
| CCCC(=O)Nc1c(C)nn(C)c1N1CCNCC1 [CBK045924T] | 102% | 87.2 |  |
| CN1CCN(S(=O)(=O)c2cccc3cccnc23)CC1 [CBK051241] | 93.2% | 106 |  |
| Nc1ccc2cc(-c3ccccc3)cnc2n1 [CBK061881] | 94.9% | 81.7 |  |
| Cc1cc(CNS(=O)(=O)c2sc3ccc(Cl)cc3c2C)no1 [CBK062277] | 92.3% | 109 |  |
| NC(=O)CSc1nnc(-c2ccc(Cl)cc2)o1 [CBK068597] | 89.3% | 105 |  |
| CCOC(=O)C1=C(C)NC(=O)NC1c1ccc(Cl)cc1Cl (stereo not shown) [CBK072057] | 91% | 93.2 |  |
| CCCOc1cccc(C(=O)Nc2cccc(-c3nc4ncccc4o3)c2C)c1 [CBK072326] | 106% | 97.9 |  |
| CC(C)Nc1nc(-c2cccnc2)nc2ccccc12 [CBK073006] | 94.6% and 102% | 91.1 |  |
| O=C(CSc1nc2ccccc2[nH]1)Nc1ccccc1 [CBK073089] | 91.6% | 110 |  |
| O=S(=O)(Nc1ncc(Br)c2cccnc12)c1ccc(-c2ccccc2)cc1 [CBK073885] | 110% | 98.8 |  |
| COc1cc(CNCc2cccnc2)cc(Br)c1OCc1ccc(Cl)cc1 [CBK074596C] | 95.5% | 107 |  |

| Compound | % viability (HeLa) | viability at 28.5 h, 10 µM (in vitro) [%] | viability at 28.5 h, 10 µM (in vitro; bulk resorufin, single well) [%] |
| --- | --- | --- | --- |
| O=C(O)CCCC(=O)N1CCN(Cc2ccc3c(c2)OCO3)CC1 [CBK074752] | 80.8% | 99.3 |  |
| Nc1nc2cccnc2cc1-c1cccc(OCc2ccccc2)c1 [CBK081206] | 105% | 99.2 |  |
| N#CCCCN1CCN(c2nccnc2OC2CCCCC2)CC1 [CBK082841T] | 107% | 87.4 |  |
| CCC1CCCCN1C(=O)c1ccc(C(=O)NC)cc1 (stereo not shown) [CBK083371] | 103% | 95.6 |  |
| COc1ccc(CN2CCCN(c3nccc(OCCN4CCOCC4)n3)CC2)cc1 [CBK083932] | 108% | 104 |  |
| O=C1CCC(=O)N1CCOc1nccnc1OC1CCN(Cc2cccnc2)CC1 [CBK084339] | 89.7% | 107 |  |
| Clc1ccc(CN2CCC(Oc3cncc(OCC4COc5ccccc5O4)n3)C2)cc1Cl (stereo not shown) [CBK084361] | 90.5% | 107 |  |
| c1cncc(COc2cncc(OC3CCN(CCc4c[nH]c5ccccc45)C3)n2)c1 (stereo not shown) [CBK084471] | 113% | 111 |  |
| Cc1onc(-c2ccccc2)c1C(=O)NCCNC(=O)c1c(-c2ccccc2)noc1C [CBK085092] | 108% | 106 |  |
| CS(=O)(=O)Nc1cc2ccccc2c(-c2ccc(S(C)(=O)=O)cc2)n1 [CBK085756] | 107% | 95.6 |  |
| CC(C)NC(=O)n1nccc1-c1cc(-c2ccccc2)no1 [CBK086581] | 82.6% | 102 |  |
| CC(=O)c1sc(NC(=O)c2ccc(Cl)cc2)nc1C [CBK087686] | 88.4% | 86.7 |  |
| Nc1nn2c(c1Cc1c(Cl)cccc1Cl)OCCCC2 [CBK089335] | 86.2% | 91.8 |  |
| CC(C)Nc1cc(Sc2ccc(Cl)c(Cl)c2)ncn1 [CBK089500] | 83.3% | 90.8 |  |
| COc1ccc2[nH]cc(CC(=O)N3CCC(C#N)(c4ccccc4)CC3)c2c1 [CBK091403] | 105% |  | 96.6 |
| O=C(O)c1cccc(Sc2ncccc2C(F)(F)F)c1 [CBK093589] | 108% | 103 |  |
| FC(F)(F)c1ccc(Sc2ccccn2)nc1 [CBK093785] | 111% | 100 |  |
| Cc1ccc(S(=O)(=O)N2CCN(c3ccc(Cl)c(Cl)c3)CC2)c(C)c1 [CBK099298] | 118% | 111 |  |
| CCOC(=O)CSc1nc2ccccc2nc1NC(C)C [CBK107166] | 111% | 101 |  |
| O=C(NCCN1CCCC1)c1cc2cc(F)ccc2[nH]1 [CBK107278] | 105% | 106 |  |
| Cc1cc(-c2cncc(NCCc3c[nH]c4ccccc34)n2)cc(C)c1O [CBK107896] | 83% | 101 |  |

| Compound | % viability (HeLa) | viability at 28.5 h, 10 µM (in vitro) [%] | viability at 28.5 h, 10 µM (in vitro; bulk resorufin, single well) [%] |
| --- | --- | --- | --- |
| FC(F)(F)c1cccc(-c2cnn(-c3ccncc3)n2)c1 [CBK112668] | 93.6% | 102 |  |
| NCCCOc1nc2ccccc2nc1C(F)(F)F [CBK115295] | 109% | 96.8 |  |
| Fc1ccc(COc2cc(N3CCCC3)ncn2)cc1 [CBK115675] | 96.4% | 109 |  |
| O=C(O)C1Cc2c([nH]c3ccccc23)C(c2ccc(Cl)cc2Cl)N1 (stereo not shown) [CBK115930] | 96.2% | 88.5 |  |
| O=C(O)CCc1ccc(-c2cccs2)n1-c1cc(Cl)ccc1O [CBK131890] | 106% | 104 |  |
| N#Cc1cccc(-c2ccc3c(c2)COC(C2CCN(C(=O)OCc4ccccc4)CC2)O3)c1 (stereo not shown) [CBK144640] | 93% | 101 |  |
| COc1cccc2sc(NC(=O)c3ccc4c(c3)OCCO4)nc12 [CBK149285] | 92.1% | 99.1 |  |
| CCN(Cc1ccccc1)C(=O)NCc1cc(C)on1 [CBK155211] | 92.6% | 106 |  |
| CCN(Cc1ccccc1)C(=O)NCc1cccc(C(F)(F)F)c1 [CBK155216] | 96.1% | 110 |  |
| N#CCCN(C(=O)NC(c1ccccc1)c1ccccc1)C1CCCCC1 [CBK156354] | 104% | 98.7 |  |
| O=C(O)CCCNc1ccc(S(=O)(=O)N2CCCCC2)cc1 [CBK261001] | 90.5% | 96.7 |  |
| O=C(O)c1ccc(CN(c2ccccc2)S(=O)(=O)c2ccccc2)cc1 [CBK262406] | 82.8% | 93.3 |  |
| COc1ccc(-c2cc(C3CC3)nc(SCC(=O)O)c2C#N)cc1 [CBK262690] | 90.1% and 95% | 91.3 |  |
| CCn1cc(C(=O)NN)c(=O)c2cc(F)c(N3CCOCC3)cc21 [CBK263050] | 107% | 99.9 |  |
| Cc1cc2c(cc1C)NC(CC(=O)Nc1ccc(Cl)cc1)C(=O)N2 (stereo not shown) [CBK263245] | 90.5% | 83.4 |  |
| O=C(CN1C(=O)C2CCCCC2C1=O)Nc1ccccc1C(=O)O (stereo not shown) [CBK264130] | 108% | 91.5 |  |
| COc1ccccc1CC(=O)Nc1ccc(O)cc1C(=O)O [CBK264305] | 91.2% | 105 |  |
| O=C(CC1Nc2ccccc2NC1=O)Nc1ccccc1 (stereo not shown) [CBK265365] | 103% | 99.8 |  |
| CC1CCc2c(sc3ncnc(SCC(=O)N4CCOCC4)c23)C1 (stereo not shown) [CBK266192] | 111% | 105 |  |
| COc1ccc(NC(=O)Nc2ccncc2)c(OC)c1 [CBK266973] | 93.8% | 95.5 |  |
